From the AptaBench aptamer set (doi:10.1093/nar/gkaf219)

How the values were obtained:
Details in all cases: 10 mM Tris-HCl, pH 7.4
[1] = test system: DNA aptamer or structured DNA CTTACGACATCTGCGTGTGGCCGGTGTGAGGGAGGGATGTCGTAAG
[2] = test system: DNA aptamer or structured DNA GGGACGACAAGTACCAAGGGTAGCTCTGCGTTGTTCGAGGTCGTCCC
[3] = test system: DNA aptamer or structured DNA GGGACGACCGTTGGCGAGTGTGTCCGGGGACTACAGGGGTCGTCCC
[4] = test system: DNA aptamer or structured DNA GGGACGACCGTTGTTCGAGCCTTGAGTACCATTGGTAGGTCGTCCC
[5] = test system: DNA aptamer or structured DNA GGGACGACGAGGGCACGTCTGTGTGCAGGGTTTCGCGCGTCGTCCC
[6] = test system: DNA aptamer or structured DNA GGGACGACGCCGGCTTTTAGGGGGGGTGTGGGTGGCGAGTCGTCCC
[7] = test system: DNA aptamer or structured DNA GGGACGACGCGTACCTGTGGTAGTTGTACGTCGTTCAAGTCGTCCC
[8] = test system: DNA aptamer or structured DNA GGGACGACGCGTACTTCCAGTAGCCGTGCGTCGTTCAAGTCGTCCC
[9] = test system: DNA aptamer or structured DNA GGGACGACGCGTAGGTCTCCTAGCTGTGCGTCGTTCAAGTCGTCCC
[10] = test system: DNA aptamer or structured DNA GGGACGACGCGTAGGTTTCCTAGCTGTGCGTCGTTCAAGTCGTCCC
[11] = test system: DNA aptamer or structured DNA GGGACGACGGAGGTTTAGGGTTTAGGTAGTGGGTTGAAGTCGTCCC
[12] = test system: DNA aptamer or structured DNA GGGACGACGGGGGGCTTTAGGGTGTAGGAGTGGGGTGAGTCGTCCC
[13] = test system: DNA aptamer or structured DNA CTTACGACTAGGTGTGGGTCGGCGCTAGGGGCAGGGTAGTCGTAAG
[14] = test system: DNA aptamer or structured DNA GGGACGACATGGGATACCAGAGTCCTGGGATGTGGTGTGTCGTCCC
[15] = test system: DNA aptamer or structured DNA GGGACGACGAGTGCGGGGAGTGTGTTTCTGTGGGGGTCGTCGTCCC
[16] = test system: DNA aptamer or structured DNA GGGACGACTGGCGCCGGATTCCCTAAGGTACACGGACTGTCGTCCC
[17] = test system: DNA aptamer or structured DNA CTTACGACAGGTTCTGAGGAATCAACGTCGGTGTAGTTGTCGTAAG
[18] = test system: DNA aptamer or structured DNA CTTACGACAGTAACGGTGGGTATATGGGATTTATGTTCGTCGTAAG
[19] = test system: DNA aptamer or structured DNA CTTACGACGACCTATTGGGGGTAGTTATAGTTGGGTGAGTCGTAAG
[20] = test system: DNA aptamer or structured DNA CTTACGACGGTGGGGGGTTGGTAGGGGAGGAGCGCATCGTCGTAAG
[21] = test system: DNA aptamer or structured DNA GGGACGACAGGGATTCGGTCTTGGAACAAAGGGGCCTCGTCTGTCGTCCC
[22] = test system: DNA aptamer or structured DNA GGGACGACAGGGATTCGGTCTTGGTACATAGGGGCCTCGTCTGTCGTCCC
[23] = test system: DNA aptamer or structured DNA GGGACGACGCACTATGGCTAGGGTTGGTACGGTCGTGAACCGCGGGGTGTCGTCCC
[24] = test system: DNA aptamer or structured DNA GGGACGACGGCACGAGGTTAATCGTTGGTTGCACTGCGCTGGGAGGCAGTCGTCCC
[25] = test system: DNA aptamer or structured DNA GGGACGACGGCACGGGGTTATTCGTTGGTTGCACTGCGCTGGGAGGCAGTCGTCCC
[26] = test system: DNA aptamer or structured DNA GGGACGACGGGGATTCGCGGATTCATAGAAAAGGGCTCGTCCGTCGTCCC
[27] = test system: DNA aptamer or structured DNA GGGACGACGGGGATTCGCGGATTCATGGAAAAGGGCTCGTCTGTCGTCCC
[28] = test system: DNA aptamer or structured DNA GGGACGACTACAGGTCGTGCGTCGCTCGAGTTGGTGAGTGTGTCGTCCC
[29] = test system: DNA aptamer or structured DNA GGGACGACTAGTGCCTTCGCGTTGTTCGGGAATCCGGTTCCGTCGTCCC
[30] = test system: DNA aptamer or structured DNA GGGACGACTGCTTGGGTAGGTCGGGTTTGGGTGCGGCGGTCGTCCC
[31] = test system: DNA aptamer or structured DNA GGGACGACATGGGATGGAGCTATGCGAGCATGTGGTGTGTCGTCCC
[32] = test system: DNA aptamer or structured DNA GGGACGACGGCTTAGCAAAGCTAGTAGGGGTCCACGCTGTCGTCCC
[33] = test system: DNA aptamer or structured DNA GGGACGACGCAGCAGTCCATCTCTCAGCGAGTTCGTCAGTCGTCCC
Throughout, for binding call: call rule not given here.

binding call [21]	binding call [23]	binding call [29]	binding call [30]	Compound	binding call [6]	binding call [11]	binding call [12]	binding call [13]	binding call [5]	binding call [16]	binding call [17]	binding call [22]	binding call [27]	binding call [28]	binding call [2]	binding call [8]	other results
				CC(=O)Oc1ccc2c3c1O[C@H]1[C@@H](OC(C)=O)C=C[C@H]4[C@@H](C2)N(C)CC[C@@]341	no binding	no binding	no binding										binding call [1]: binds; Kd [2]: 2.18 µM; Kd [3]: 1.61 µM; Kd [4]: 2.28 µM; Kd [5]: 3.76 µM; Kd [7]: 4.13 µM; Kd [8]: 4.08 µM; Kd [9]: 4.35 µM; Kd [10]: 4.57 µM
				CN1C(=O)CN=C(c2ccccc2)c2cc(Cl)ccc21				no binding	binds	no binding							binding call [14]: no binding; binding call [3]: no binding; binding call [15]: no binding
no binding	binds			NCCc1ccc(O)c(O)c1				no binding			no binding	no binding	no binding	binds			binding call [18]: no binding; binding call [19]: no binding; binding call [20]: no binding; binding call [24]: binds; binding call [25]: no binding; binding call [26]: no binding
no binding	no binding	no binding	no binding	CN(C)CCOC(c1ccccc1)c1ccccc1		binds	binds						no binding		no binding		binding call [10]: no binding
				C=CCN1CC[C@]23c4c5ccc(O)c4O[C@H]2C(=O)CC[C@@]3(O)[C@H]1C5					no binding	no binding		no binding	no binding	no binding	no binding	no binding	binding call [14]: no binding; binding call [31]: no binding; binding call [3]: no binding; binding call [4]: no binding; binding call [7]: no binding; binding call [9]: no binding; binding call [10]: no binding; binding call [32]: binds
				COc1ccc2c3c1O[C@H]1C(=O)CC[C@@]4(O)[C@@H](C2)N(C)CC[C@]314	no binding	no binding	no binding				no binding						Kd [14]: 2.77 µM; Kd [31]: 3.19 µM; Kd [15]: 0.99 µM; Kd [33]: 2.22 µM; Kd [32]: 0.9 µM; Kd [16]: 3.06 µM
no binding		no binding	no binding	C=C[C@H]1CN2CC[C@@H]1C[C@H]2[C@H](O)c1ccnc2ccc(OC)cc12					no binding		no binding	no binding	no binding		no binding	no binding	binding call [31]: binds; binding call [24]: no binding; binding call [25]: binds

Compound	binding call [21]	binding call [23]	binding call [29]	binding call [30]	binding call [6]	binding call [11]	binding call [12]	binding call [13]	binding call [5]	binding call [16]	binding call [17]	binding call [22]	binding call [27]	binding call [28]	binding call [2]	binding call [8]	other results
O=C1CC[C@@]2(O)[C@H]3Cc4ccc(O)c5c4[C@@]2(CCN3CC2CC2)[C@H]1O5				no binding					binds	no binding		no binding	no binding	no binding	no binding	no binding	binding call [7]: no binding; binding call [9]: no binding; binding call [32]: no binding
NCCc1c[nH]c2ccc(O)cc12	no binding	no binding	no binding		no binding		no binding	binds			no binding	no binding	no binding	no binding			binding call [19]: no binding; binding call [20]: no binding; binding call [26]: no binding
